Test results reported in patent US12077503B2, “Substituted cyclic amides and their use as herbicides” (FMC CORPORATION, priority 2015, dated 2024).
Like-named read-outs stand apart in the source and are kept apart here.

Key:
Assay type in all cases: in vivo
corn (Zea mays) = assay: Test A postemergence; settings: Zea mays, post-emergence, 240 h; for Corn plant response rating (crop injury, 0 = no effect, 100 = complete kill) at 125 g/ha: postemergence, visual injury after approximately 10 d
Outline: (§1)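 Preemergence directed soil spray on seeded pots, or postemergence application to plants 2–10 cm, one- to two-leaf. Solvent mixture non-phytotoxic, with surfactant. Scored ~10 d later, visually, 0–100 vs untreated.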

[1] = test system: ryegrass, Italian (Italian ryegrass, Lolium multiflorum); assay: Test A postemergence; settings: Lolium multiflorum, post-emergence, 240 h; for pest or weed control at 125 g/ha: 125 g ai/ha
Outline: as §1

[2] = test system: pigweed (Amaranthus retroflexus); assay: Test A postemergence; settings: Amaranthus retroflexus, post-emergence, 240 h; for pest or weed control at 125 g/ha: 125 g ai/ha
Outline: as §1

[3] = test system: wheat (Triticum aestivum); assay: Test A postemergence; settings: Triticum aestivum, post-emergence, 240 h; for plant injury at 125 g/ha: 125 g ai/ha
Outline: as §1

[4] = test system: giant foxtail (Setaria faberii); assay: Test A preemergence; settings: Setaria faberi, pre-emergence, 240 h, read-out: Plant response rating, Foxtail, Giant; for pest or weed control at 500 g/ha: 500 g ai/ha; for pest or weed control at 125 g/ha: 125 g ai/ha
Outline: as §1

Kochia (Kochia scoparia) = assay: Test A preemergence; settings: Bassia scoparia, pre-emergence, 240 h, read-out: Plant response rating, Kochia; for pest or weed control at 500 g/ha: 500 g ai/ha; for pest or weed control at 125 g/ha: 125 g ai/ha
Outline: as §1

[5] = test system: ryegrass, Italian (Italian ryegrass, Lolium multiflorum); assay: Test A preemergence; settings: Lolium multiflorum, pre-emergence, 240 h, read-out: Plant response rating, Ryegrass, Italian; for pest or weed control at 500 g/ha: 500 g ai/ha; for pest or weed control at 125 g/ha: 125 g ai/ha
Outline: as §1

[6] = test system: ragweed (common ragweed, Ambrosia elatior); assay: Test A preemergence; settings: Ambrosia artemisiifolia, pre-emergence, 240 h, read-out: Plant response rating, Ragweed; for pest or weed control at 500 g/ha: 500 g ai/ha; for pest or weed control at 125 g/ha: 125 g ai/ha
Outline: as §1

[7] = test system: pigweed (Amaranthus retroflexus); assay: Test A preemergence; settings: Amaranthus retroflexus, pre-emergence, 240 h, read-out: Plant response rating, Pigweed; for pest or weed control at 500 g/ha: 500 g ai/ha; for pest or weed control at 125 g/ha: 125 g ai/ha
[8] = test system: barnyardgrass (Echinochloa crus-galli); assay: Test A preemergence; settings: Echinochloa crus-galli, pre-emergence, 240 h, read-out: Plant response rating, Barnyardgrass; for pest or weed control at 500 g/ha: 500 g ai/ha; for pest or weed control at 125 g/ha: 125 g ai/ha
Outline: as §1

[9] = test system: ducksalad (Heteranthera limosa); assay: Test B flooded paddy test; settings: Heteranthera limosa, Flood, 250 g ai/ha
Outline: (§2)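 Greenhouse paddy pots with 2-leaf stage plants received compound by direct addition to floodwater 3 cm deep, kept at that level. Scored visually at 13–15 d versus controls (0 no effect; 100 complete control).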

[10] = test system: sedge, umbrella (small-flower umbrella sedge, Cyperus difformis); assay: Test B flooded paddy test; settings: Cyperus difformis, Flood, 250 g ai/ha
Outline: as §2

rice (Oryra sativa) = assay: Test B flooded paddy test; settings: Oryza sativa, Flood, 250 g ai/ha
Outline: as §2

[11] = test system: barnyardgrass (Echinochloa crus-galli); assay: Test B flooded paddy test; settings: Echinochloa crus-galli, Flood, 250 g ai/ha
Outline: as §2

[12] = preemergence, 0 to 100 scale (0 no effect, 100 complete control)
[13] = Preemergence, 0 to 100 scale (0 no effect, 100 complete control)
[14] = 125 g ai/ha, 0 to 100 scale (0 no effect, 100 complete control)
[15] = postemergence, visual injury after approximately 10 d, 0 to 100 scale (0 no effect, 100 complete control), read-out: Plant response rating, Ryegrass, Italian
[16] = postemergence, visual injury after approximately 10 d, 0 to 100 scale (0 no effect, 100 complete control), read-out: Plant response rating, Pigweed
[17] = postemergence, visual injury after approximately 10 d, 0 to 100 scale (0 no effect, 100 complete control), read-out: Plant response rating, Wheat
[18] = preemergence, visual rating after approx. 10 d, 0 to 100 scale where 0 is no effect and 100 is complete control
[19] = preemergence, 0 to 100 scale, 0 = no effect, 100 = complete control
[20] = scale of 0 to 100 where 0 is no effect and 100 is complete control, read-out: Ducksalad plant response rating
[21] = scale of 0 to 100 where 0 is no effect and 100 is complete control, read-out: Sedge, Umbrella plant response rating
[22] = scale of 0 to 100 where 0 is no effect and 100 is complete control, read-out: Rice plant response rating
[23] = scale of 0 to 100 where 0 is no effect and 100 is complete control, read-out: Barnyardgrass plant response rating

With `O=C1NC[C@H](c2cc(C(F)(F)F)ccn2)[C@H]1C(=O)Nc1cccc(F)c1F` (racemic) [Compound 1376] the plant injury at 125 g/ha (corn (Zea mays); 125 g ai/ha, Postemergence, visual rating about 10 d after treatment, read-out: Corn plant response rating (0 to 100 scale)) was 0%, the Corn plant response rating (crop injury, 0 = no effect, 100 = complete kill) at 500 g/ha (corn (Zea mays); Postemergence, 500 g ai/ha, visual injury, 0 to 100 scale (0 no effect, 100 complete control), approx. 10 d) was 30% and the pest or weed control at 125 g/ha ([1]; Postemergence, visual rating about 10 d after treatment, read-out: Ryegrass, Italian plant response rating (0 to 100 scale)) was 0%. The pest or weed control at 500 g/ha ([1]; Postemergence, 500 g ai/ha, visual injury, 0 to 100 scale (0 no effect, 100 complete control), approx. 10 d, read-out: Plant response rating, Ryegrass, Italian) was 30%, the pest or weed control at 125 g/ha ([2]; Postemergence, visual rating about 10 d after treatment, read-out: Pigweed plant response rating (0 to 100 scale)) was 0% and the pest or weed control at 500 g/ha ([2]; Postemergence, 500 g ai/ha, visual injury, 0 to 100 scale (0 no effect, 100 complete control), approx. 10 d, read-out: Plant response rating, Pigweed) was 20%. For the same molecule, the plant injury at 125 g/ha ([3]; Postemergence, visual rating about 10 d after treatment, read-out: Wheat plant response rating (0 to 100 scale)) was 0%, the plant injury at 500 g/ha ([3]; Postemergence, 500 g ai/ha, visual injury, 0 to 100 scale (0 no effect, 100 complete control), approx. 10 d, read-out: Plant response rating, Wheat) was 60% and the pest or weed control at 500 g/ha [4, 12] was 100%. The pest or weed control at 125 g/ha [4, 13] was 90%, the pest or weed control at 500 g/ha (Kochia (Kochia scoparia); [12]) was 0% and the pest or weed control at 125 g/ha (Kochia (Kochia scoparia); [13]) was 0%. It also gave a pest or weed control at 500 g/ha [5, 12] of 70%, a pest or weed control at 125 g/ha [5, 13] of 20% and a pest or weed control at 500 g/ha [6, 12] of 0%. The pest or weed control at 125 g/ha [6, 13] was 0%, the pest or weed control at 500 g/ha [7, 12] was 0% and the pest or weed control at 125 g/ha [7, 13] was 0%. It also gave a pest or weed control at 500 g/ha [8, 12] of 100%, a pest or weed control at 125 g/ha [8, 13] of 90% and a pest or weed control at 250 g/ha ([9]; 360 h, visually evaluated after 13 to 15 d, read-out: Plant response rating, Ducksalad (0 to 100 scale where 0 is no effect and 100 is complete control)) of 70%. For the same molecule, the pest or weed control at 250 g/ha ([10]; 360 h, visually evaluated after 13 to 15 d, read-out: Plant response rating, Sedge, Umbrella (0 to 100 scale where 0 is no effect and 100 is complete control)) was 0%, the pest or weed control at 250 g/ha (rice (Oryra sativa); 360 h, visually evaluated after 13 to 15 d, read-out: Plant response rating, Rice (0 to 100 scale where 0 is no effect and 100 is complete control)) was 0% and the pest or weed control at 250 g/ha ([11]; 360 h, visually evaluated after 13 to 15 d, read-out: Plant response rating, Barnyardgrass (0 to 100 scale where 0 is no effect and 100 is complete control)) was 40%.

`COc1ccc([C@H]2CNC(=O)[C@@H]2C(=O)Nc2ccccc2S(C)(=O)=O)cc1F` [Compound 721] gave a Corn plant response rating (crop injury, 0 = no effect, 100 = complete kill) at 125 g/ha (corn (Zea mays); [14]) of 0%, a pest or weed control at 125 g/ha [1, 15] of 0% and a pest or weed control at 125 g/ha [2, 16] of 0%. The plant injury at 125 g/ha [3, 17] was 0%, the pest or weed control at 125 g/ha [4, 18] was 30% and the pest or weed control at 500 g/ha [4, 19] was 90%. The pest or weed control at 125 g/ha (Kochia (Kochia scoparia); [18]) was 0%, the pest or weed control at 500 g/ha (Kochia (Kochia scoparia); [19]) was 0% and the pest or weed control at 125 g/ha [5, 18] was 0%. For the same molecule, the pest or weed control at 500 g/ha [5, 19] was 20%, the pest or weed control at 125 g/ha [6, 18] was 0% and the pest or weed control at 500 g/ha [6, 19] was 50%. The pest or weed control at 125 g/ha [7, 18] was 0%, the pest or weed control at 500 g/ha [7, 19] was 0% and the pest or weed control at 125 g/ha [8, 18] was 30%. It also gave a pest or weed control at 500 g/ha [8, 19] of 80%, a pest or weed control at 250 g/ha [9, 20] of 100% and a pest or weed control at 250 g/ha [10, 21] of 0%. For the same molecule, the pest or weed control at 250 g/ha (rice (Oryra sativa); [22]) was 0% and the pest or weed control at 250 g/ha [11, 23] was 0%.

For `O=C1NC[C@H](c2ccc(C3CC3)cc2)[C@H]1C(=O)Nc1ccccc1F` [Compound 727], the Corn plant response rating (crop injury, 0 = no effect, 100 = complete kill) at 125 g/ha (corn (Zea mays); [14]) was 0%, the pest or weed control at 125 g/ha [1, 15] was 0% and the pest or weed control at 125 g/ha [2, 16] was 0%. It also gave a plant injury at 125 g/ha [3, 17] of 0%, a pest or weed control at 125 g/ha [4, 18] of 80% and a pest or weed control at 500 g/ha [4, 19] of 90%. The pest or weed control at 125 g/ha (Kochia (Kochia scoparia); [18]) was 0%, the pest or weed control at 500 g/ha (Kochia (Kochia scoparia); [19]) was 0% and the pest or weed control at 125 g/ha [5, 18] was 0%. It also gave a pest or weed control at 500 g/ha [5, 19] of 0%, a pest or weed control at 125 g/ha [6, 18] of 0% and a pest or weed control at 500 g/ha [6, 19] of 0%. For the same molecule, the pest or weed control at 125 g/ha [7, 18] was 0%, the pest or weed control at 500 g/ha [7, 19] was 0% and the pest or weed control at 125 g/ha [8, 18] was 70%. The pest or weed control at 500 g/ha [8, 19] was 90%, the pest or weed control at 250 g/ha [9, 20] was 75% and the pest or weed control at 250 g/ha [10, 21] was 0%. For the same molecule, the pest or weed control at 250 g/ha (rice (Oryra sativa); [22]) was 25% and the pest or weed control at 250 g/ha [11, 23] was 0%.
